One series concerns the target 5-HT1BR (Homo sapiens (Human), UniProt P28222). In words: 5-HT1BR cAMP secondary messenger agonist assay (HitHunter, CHO-K1). It is filed as cell-based. An excerpt: The 5-HT1BR cAMP secondary messenger agonist assay used a panel of CHO-K1 cell lines stably expressing non-tagged GPCRs that endogenously signal through cAMP. Hit Hunter® cAMP assays monitored the activation of a GPCR via Gi and Gs secondary messenger signaling in a homogenous, non-imaging assay format using DiscoverX Enzyme Fragment Complementation (EFC) with β-galactosidase as the functional endpoint.
The enzyme was split into two complementary portions: Enzyme Acceptor (EA) and Enzyme Donor (ED). Exogenously introduced ED fused to cAMP (ED-cAMP) competed with endogenously generated cAMP for binding to an anti-cAMP-specific antibody. Active β-galactosidase was formed by complementation of exogenous EA to any unbound ED-cAMP.
Cell lines were expanded from freezer stocks according to standard procedures. Cells were seeded in a total volume of 20 μL into white walled, 384-well microplates and incubated at 37° C. for the appropriate time prior to testing. cAMP modulation was determined using the DiscoverX HitHunter cAMP XS+ assay.
For agonist determination, cells were incubated with sample (in the presence of EC80 forskolin to induce response if measuring Gi secondary messenger signaling). Media was aspirated from cells and replaced with 15 μL 2:1 HBSS/10 mM Hepes:cAMP XS+ Ab reagent. Intermediate dilution of sample stocks was performed to generate 4×sample in assay buffer (optionally containing 4×EC80 forskolin). 5 μL of 4×sample was added to cells and incubated at 37° C. or room temperature for 30 or 60 minutes, as appropriate. Final assay vehicle concentration was 1%.

The target in series [1] is human 5-HT transporter (hSERT) (Homo sapiens (Human), UniProt P31645). Put plainly: Human serotonin transporter  assay ([3H]imipramine radioligand, CHO cells). Format: binding. Particulars: for IC50: 2 nM [3H]imipramine; for Ki: Cheng Prusoff equation. The procedure:
Benzofuran derivatives were evaluated for inhibiting the human 5-HT transporter (hSERT) as expressed in CHO cells using an antagonist radioligand assay (Tatsumi, M. et al. (1999), Eur. J Pharmacol., 368: 277-283). […] Test compounds were assayed in three trials at […], and 0.94868 μM.

Series [2] is described as follows: Salt screening experiments (PXRD result). It is filed as physicochemical. Particulars: S-5-MAPB Pure Enantiomer (Pattern 1A Enantiomer) + counterion 1:1 molar ratio, 40° C.
The target in series [3] is T1, serotonin (5-HT) transporter (SERT) (Rattus norvegicus (Rat), UniProt P31652). Put plainly: Rat synaptosome SERT [3H]5-HT release assay. The conditions noted are these: 5 nM [3H]5-HT.
Series [4] addresses T1, serotonin (5-HT) transporter (SERT). In words: Rat synaptosome SERT [3H]5-HT uptake inhibition assay. The conditions noted are these: 5 nM [3H]5-HT.
Setting [5] is: [3H]5-HT release via SERT EC50 (nM).
Where [6] appears, read: Inhibition of [3H]5-HT Uptake at SERT IC50 (nM).
Setting [7] is: read-out: [3H]5-HT release via SERT EC50.
The mark [8] stands for this setting: read-out: Inhibition of [3H]5-HT Uptake at SERT IC50.

Counter-ions that a name gives are not always drawn. Like-named read-outs stand apart in the source and are kept apart here.

`CCC(NC)C(=O)c1ccc2occc2c1` (single isomer, unassigned; (-)) [(−)-BK-5-MBPB, 1-(benzofuran-5-yl)-2-(methylamino) butan-1-one]: the “Hill Coef.” value on 5-HT1BR was found to be 1.6241. The EC50 (as a rule, the midpoint of the concentration-response curve) on 5-HT1BR (5-HT1BR EC50 (μM)) is 6.61 µM. Besides, the IC50 (usually the midpoint of a concentration-inhibition curve) in series [1] (SERT IC50 (μM)) came to 1.6 µM. For the same compound, the Ki – broadly, a dissociation constant, usually derived from enzyme kinetics or from competition with a known ligand – in series [1] (SERT Ki (μM)) was 0.72 µM.
For the compound `O=C(O)/C=C\C(=O)O` [Maleic], the “PXRD Result” value in series [2] (solvent Acetone), in series [2] (solvent EtOH:water 90:10), in series [2] (solvent MeOH:water 90:10) and in series [2] (solvent THF) was “N/A (gel)” in each case.
For `O=[N+]([O-])O` [HNO3], the “PXRD Result” value in series [2] (solvent Acetone), in series [2] (solvent EtOH:water 90:10), in series [2] (solvent MeOH:water 90:10) and in series [2] (solvent THF) was “N/A (gel)” each time.
Compound `CNC(C)C(=O)c1ccc2occc2c1` (single isomer, unassigned) [Enantiomer 1 BK-5-MAPB, 1-(benzofuran-5-yl)-2-(methylamino) propan-1-one] yielded an EC50 at 5-HT1BR (5HT1B Agonist (μM)) of 0.08 µM.
Regarding `N=C(N)NCCC[C@H](N)C(=O)O` [L-Arginine], the “PXRD Result” value in series [2] (solvent Acetone), in series [2] (solvent EtOH:water 90:10), in series [2] (solvent MeOH:water 90:10) and in series [2] (solvent THF) was “N/A (gel)” throughout.
Regarding `O=P(O)(O)O` [Compound H3PO4], the “PXRD Result” value in series [2] (solvent MeOH:water 90:10) is on record as “N/A (gel)”.
With `O=C(O)CCC(=O)O` [Succinic], the “PXRD Result” value in series [2] (solvent Acetone), in series [2] (solvent EtOH:water 90:10), in series [2] (solvent MeOH:water 90:10) and in series [2] (solvent THF) was “N/A (gel)” in each case.
Take `CS(=O)(=O)O` [Methane Sulfonic]: the “PXRD Result” value in series [2] (solvent Acetone), in series [2] (solvent EtOH:water 90:10), in series [2] (solvent MeOH:water 90:10) and in series [2] (solvent THF) was “N/A (gel)” in each case.
Take `CNC(C)C(=O)c1ccc2occc2c1` (single isomer, unassigned; (+)) [(+)-BK-5-MAPB, 1-(benzofuran-5-yl)-2-(methylamino) propan-1-one]: the “Hill Coef.” value at 5-HT1BR turned out to be 1.05. Besides, the EC50 amounted to 3.07 µM at 5-HT1BR (5-HT1BR EC50 (μM)) and 439 ± 72.5 nM in series [3] (setting [5]). Moreover, the IC50 in series [4] (setting [6]) amounted to 2090 ± 151 nM; in series [1] (SERT IC50 (μM)), 38 µM. This compound had a Ki in series [1] (SERT Ki (μM)) of 17 µM.
In the case of `CNC(C)C(=O)c1ccc2ccoc2c1` (single isomer, unassigned; (+)) [(+)-BK-6-MAPB, 1-(benzofuran-6-yl)-2-(methylamino) propan-1-one], the results for the EC50 (at 5-HT1BR (5-HT1BR EC50 (μM)); in series [3] (setting [5])) were over 10 µM and 1280 ± 268 nM, respectively. Also, the IC50 in series [4] (setting [6]) stood at 5470 ± 424 nM.
With “1-(benzofuran-6-yl)-N-methylbutan-2-amine [Compound S-6-MBPB]”, in series [3] (setting [7]), the EC50 is 54.1 ± 33.9 nM. Besides, the IC50 in series [4] (setting [8]) stood at 217 ± 45.8 nM; in series [1] (read-out: SERT IC50), 2.7 µM. For the same compound, the Ki in series [1] (read-out: SERT Ki) came to 1.2 µM.
For the compound `CNC(C)C(=O)c1ccc2occc2c1` (racemic) [rac-BK-5-MAPB, 1-(benzofuran-5-yl)-2-(methylamino)propan-1-one hydrochloride], the “Hill Coef.” value at 5-HT1BR is 0.91. The compound further gave an EC50 on 5-HT1BR (5-HT1BR EC50 (μM)) of 0.14 µM.
As to `CCC(NC)C(=O)c1ccc2ccoc2c1` (single isomer, unassigned; (+)) [(+)-BK-6-MBPB, 1-(benzofuran-6-yl)-2-(methylamino)butan-1-one], on 5-HT1BR (5-HT1BR EC50 (μM)), the EC50 is over 30 µM. This compound also registered an IC50 in series [1] (SERT IC50 (μM)) of 29 µM. Moreover, the inhibitory constant (Ki) in series [1] (SERT Ki (μM)) came out at 13 µM.
Regarding `CCC(NC)C(=O)c1ccc2ccoc2c1` (racemic) [rac-BK-6-MBPB, 1-(benzofuran-6-yl)-2-(methylamino)butan-1-one hydrochloride], the EC50 on 5-HT1BR (5-HT1BR EC50 (μM)) was over 30 µM.
With `NCCCC[C@H](N)C(=O)O` [L-Lysine], the “PXRD Result” value in series [2] (solvent Acetone) was “N/A (gel)”; in series [2] (solvent EtOH:water 90:10), “N/A (gel)”; in series [2] (solvent MeOH:water 90:10), “N/A (gel)”; in series [2] (solvent THF) it was “L-Lysine”.
Take “1-(benzofuran-6-yl)-N-methylbutan-2-amine [Compound R-6-MBPB]”: the EC50 in series [3] (setting [7]) came out at 172 ± 82.2 nM. The results for the 50% inhibitory concentration (IC50) in series [4] (setting [8]) and in series [1] (read-out: SERT IC50) were 702 ± 262 nM and 5.7 µM, respectively. Moreover, the Ki in series [1] (read-out: SERT Ki) came to 2.6 µM.
In the case of `CNC(C)C(=O)c1ccc2ccoc2c1` (single isomer, unassigned; (-)) [(−)-BK-6-MAPB, 1-(benzofuran-6-yl)-2-(methylamino) propan-1-one], the “Hill Coef.” value at 5-HT1BR is given as 0.8339. The EC50 on 5-HT1BR (5-HT1BR EC50 (μM)) amounted to 0.288 µM; in series [3] (setting [5]) it was 72.2 ± 16.6 nM. In addition, the IC50 was determined as 275 ± 13 nM in series [4] (setting [6]) and 12 µM in series [1] (SERT IC50 (μM)). The same compound displayed a Ki in series [1] (SERT Ki (μM)) of 5.4 µM.
Take `CNC(C)C(=O)c1ccc2ccoc2c1` (racemic) [rac-BK-6-MAPB, 1-(benzofuran-6-yl)-2-(methylamino)propan-1-one hydrochloride]: the “Hill Coef.” value at 5-HT1BR turned out to be 0.99. On 5-HT1BR (5-HT1BR EC50 (μM)), the EC50 is 0.537 µM.
For the compound Fumaric, the “PXRD Result” value in series [2] (solvent Acetone), in series [2] (solvent MeOH:water 90:10) and in series [2] (solvent THF) was “N/A (gel)” throughout.
In the case of `CNC(C)C(=O)c1ccc2occc2c1` (single isomer, unassigned) [Enantiomer 2 BK-5-MAPB, 1-(benzofuran-5-yl)-2-(methylamino) propan-1-one], at 5-HT1BR (5HT1B Agonist (μM)), the EC50 was found to be 3.07 µM.
`CCC(NC)C(=O)c1ccc2occc2c1` (single isomer, unassigned; (+)) [(+)-BK-5-MBPB, 1-(benzofuran-5-yl)-2-(methylamino) butan-1-one] gave an EC50 at 5-HT1BR (5-HT1BR EC50 (μM)) of over 30 µM. For the same compound, in series [1] (SERT IC50 (μM)), the IC50 amounted to 6.5 µM. For the same compound, the Ki in series [1] (SERT Ki (μM)) was 3 µM.
As to `O=S(=O)(O)O` [Compound H2SO4], the “PXRD Result” value in series [2] (solvent Acetone), in series [2] (solvent EtOH:water 90:10), in series [2] (solvent MeOH:water 90:10) and in series [2] (solvent THF) was “N/A (gel)” each time.
On to `CNC(C)C(=O)c1ccc2occc2c1` (single isomer, unassigned; (-)) [(−)-BK-5-MAPB, 1-(benzofuran-5-yl)-2-(methylamino) propan-1-one], for which the “Hill Coef.” value on 5-HT1BR is 1.5. In addition, the values for the EC50 (on 5-HT1BR (5-HT1BR EC50 (μM)); in series [3] (setting [5])) were 0.0777 µM and 80 ± 13.7 nM, respectively. In addition, the IC50 in series [4] (setting [6]) was found to be 284 ± 11.9 nM; in series [1] (SERT IC50 (μM)), 6.9 µM. This compound showed a Ki in series [1] (SERT Ki (μM)) of 3.2 µM.
With `CCC(NC)C(=O)c1ccc2ccoc2c1` (single isomer, unassigned; (-)) [(−)-BK-6-MBPB, 1-(benzofuran-6-yl)-2-(methylamino)butan-1-one], the “Hill Coef.” value on 5-HT1BR came to 1.9551. The same compound registered an EC50 at 5-HT1BR (5-HT1BR EC50 (μM)) of 7.52 µM. The compound further came in with a concentration for half-maximal inhibition (IC50) in series [1] (SERT IC50 (μM)) of 3.7 µM. Further, the Ki in series [1] (SERT Ki (μM)) was 1.7 µM.
For the compound `CCC(NC)C(=O)c1ccc2occc2c1` (racemic) [rac-BK-5-MBPB, 1-(benzofuran-5-yl)-2-(methylamino)butan-1-one hydrochloride], the “Hill Coef.” value at 5-HT1BR is reported as 1.01. This compound also showed an EC50 at 5-HT1BR (5-HT1BR EC50 (μM)) of 19.6 µM.
